The record followed here is the supplement of paper PMC4862054.

Common to all, as to assay: normalised viability (% of control), CellTiter-Blue; higher = more viable cells (about 100 = DMSO control)
Common to all, as to conditions: incubation time: 72 h
On the technique in general: Alamar Blue is a resazurin reagent that responds to reducing activity.

Test [1] deals with CAL-51. On the procedure:
(§1)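 DSRT, CellTiter-Blue viability, 72 h incubation. Signal is normalised to DMSO and benzethonium chloride controls. Value is the normalised response at dose 9.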

The test system of test [2] is DU-4475. On the procedure:
as §1

The subject of test [3] is HDQ-P1. The procedure: as §1
The subject of test [4] is CAL-85-1. On the procedure:
as §1

Test [5] deals with MDA-MB-453. On the procedure: as §1
The test system of test [6] is CAL-148. On the procedure:
as §1

Test [7] has as its system CAL-51. The procedure:
(§2)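 DSRT, CellTiter-Blue viability, 72 h incubation. Signal is normalised to DMSO and benzethonium chloride controls. Value is the normalised response at dose 8.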
This is another data set of the same source.

Test [8] deals with DU-4475. On the procedure:
as §2
This is another data set of the same source.

Test [9] deals with HDQ-P1. On the procedure: as §2
This is another data set of the same source.

Test [10] deals with CAL-85-1. The procedure: as §2
The source holds these as a separate data set.

The test system of test [11] is MDA-MB-453. On the procedure: as §2
This is another data set of the same source.

In test [12] the test system is CAL-148. On the procedure:
as §2
This is another data set of the same source.

On to `CC(=O)c1c(C)c2cnc(Nc3ccc(N4CCNCC4)cn3)nc2n(C2CCCC2)c1=O` (10000 nM), for which the normalised viability worked out at 50.8% in the test with CAL-51 [1]; 85.9% in the test with DU-4475 [2]; 93.5% in the test on HDQ-P1 [3]; 78.2% with CAL-85-1 [4]; 61.1% with MDA-MB-453 [5]; 87.6% with CAL-148 [6].

For `C[C@]12CC[C@@H]3c4ccc(OC(=O)N(CCCl)CCCl)cc4CC[C@H]3[C@@H]1CC[C@@H]2O` [Estramustine] (990 nM), the normalised viability is 84% in the test on CAL-51 [1]; 89.9% with DU-4475 [2]; 99.5% with HDQ-P1 [3]; 110% with CAL-85-1 [4]; 101% in the test on MDA-MB-453 [5]; 111% in the test with CAL-148 [6].

For `C[C@]1(O)C[C@@H](c2nc(-c3ccc4ccc(-c5ccccc5)nc4c3)c3c(N)nccn32)C1` [OSI-906] (10000 nM), the normalised viability in the test with CAL-51 [1] is 81%; in the test with DU-4475 [2], 92.6%; in the test with HDQ-P1 [3] it was 32.4%; in the test with CAL-85-1 [4] it was 67.4%; in the test with MDA-MB-453 [5], 65.9%; in the test with CAL-148 [6] it was 118%.

On to `COc1cc(F)c(F)c(Nc2ccc(I)cc2F)c1NS(=O)(=O)C1(C[C@H](O)CO)CC1` [RDEA119] (10000 nM), for which the normalised viability in the test with CAL-51 [1] is 60.4%; in the test on DU-4475 [2], 0.93%; in the test with HDQ-P1 [3] it was 51.1%; with CAL-85-1 [4], 29.9%; with MDA-MB-453 [5] it was 36.1%; in the test on CAL-148 [6], 71.5%.

`Cn1cnc2c(F)c(Nc3ccc(Br)cc3Cl)c(C(=O)NOCCO)cc21` [Selumetinib] (3000 nM): the normalised viability worked out at 86.9% in the test on CAL-51 [7]; 0.16% in the test with DU-4475 [8]; 76.5% in the test with HDQ-P1 [9]; 59.3% in the test on CAL-85-1 [10]; 108% in the test on MDA-MB-453 [11]; 91.9% in the test with CAL-148 [12].

On to `Nc1nc2[nH]cnc2c(=S)[nH]1` [Thioguanine] (3000 nM), for which the normalised viability is 103% with CAL-51 [7]; 115% in the test on DU-4475 [8]; 86.4% in the test on HDQ-P1 [9]; 75.7% in the test on CAL-85-1 [10]; 110% in the test on MDA-MB-453 [11]; 78.4% with CAL-148 [12].
